Measurements reported in patent US6355799B1, “Substituted benzene compounds, process for their preparation, and herbicidal and defoliant compositions containing them” (ISK Americas Incorporated, priority 1997, dated 2002).

Columns and labels:
Type in all cases: in vivo
[1] = test system: upland rice (Oryza sp., var. Tebonnet, RICE); experiment: Post-emerge test, crop safety; settings: rating scale 0-100 (0 no damage, 100 complete death), 14 days after application
Procedure, shortened: (§1)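 Compounds in acetone were track-sprayed at 187 l/ha, 15–1000 g ai/ha, onto sandy loam pots. Pre-emerge seeds were sown one day before spraying, with surface watering afterwards. Post-emerge plants were at the 2–3 leaf stage and sprayed with 0.25% v/v non-ionic surfactant. Injury was rated 0–100 at 14 days.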

[2] = test system: field corn (Zea mays L., var. Dekalb 535, CORN); experiment: Post-emerge test, crop safety; settings: rating scale 0-100 (0 no damage, 100 complete death), 14 days after application
Procedure, shortened: as §1

[3] = test system: barnyardgrass (Echinochloa crus-galli, ECHCG); experiment: Pre-emerge test, greenhouse herbicide activity screening; settings: pre-emerge, 14 days after application, rating scale 0-100
Procedure, shortened: as §1

[4] = test system: johnsongrass (Sorghum halepense, SORHA); experiment: as above; settings: pre-emerge, 14 days after application, rating scale 0-100
Procedure, shortened: as §1

[5] = test system: velvetleaf (Abutilon theophrasti, ABUTH); experiment: as above; settings: pre-emerge, 14 days after application, rating scale 0-100
Procedure, shortened: as §1

[6] = test system: large crabgrass (Digitaria sanguinalis, DIGSA); experiment: as above; settings: pre-emerge, 14 days after application, rating scale 0-100
Procedure, shortened: as §1

[7] = test system: lambsquarters (Chenopodium album, CHEAL); experiment: as above; settings: pre-emerge, 14 days after application, rating scale 0-100
Procedure, shortened: as §1

[8] = test system: sicklepod (Cassia obtusifolia, CASOB); experiment: as above; settings: pre-emerge, 14 days after application, rating scale 0-100
Procedure, shortened: as §1

[9] = test system: ivyleaf morningglory (Ipomoea hederacea, IPOHE); experiment: as above; settings: pre-emerge, 14 days after application, rating scale 0-100
Procedure, shortened: as §1

[10] = test system: green foxtail (Setaria viridis, SETVI); experiment: as above; settings: pre-emerge, 14 days after application, rating scale 0-100
Procedure, shortened: as §1

[11] = test system: redroot pigweed (Amaranthus retroflexus, AMARE); experiment: as above; settings: pre-emerge, 14 days after application, rating scale 0-100
Procedure, shortened: as §1

[12] = test system: barnyardgrass (Echinochloa crus-galli, ECHCG); experiment: Post-emerge test, greenhouse herbicide activity screening; settings: rating scale 0-100 (0 no damage, 100 complete death), 14 days after application
Procedure, shortened: (§2)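 Visual ratings on a 0-100 scale (0 no damage, 100 all plants dead) were taken at 14 days after treatment. Rates of 15-1000 g ai/ha in acetone, 187 l/ha, were sprayed onto soil one day after planting (pre-emerge) or onto 2-3 leaf plants with 0.25% v/v surfactant (post-emerge).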

[13] = test system: johnsongrass (Sorghum halepense, SORHA); experiment: as above; settings: rating scale 0-100 (0 no damage, 100 complete death), 14 days after application
Procedure, shortened: as §2

[14] = test system: velvetleaf (Abutilon theophrasti, ABUTH); experiment: as above; settings: rating scale 0-100 (0 no damage, 100 complete death), 14 days after application
Procedure, shortened: as §2

[15] = test system: redroot pigweed (Amaranthus retroflexus, AMARE); experiment: as above; settings: rating scale 0-100 (0 no damage, 100 complete death), 14 days after application
Procedure, shortened: as §2

[16] = test system: common ragweed (Ambrosia artemisizfolia L., AMBEL); experiment: as above; settings: rating scale 0-100 (0 no damage, 100 complete death), 14 days after application
Procedure, shortened: as §2

[17] = test system: large crabgrass (Digitaria sanguinalis, DIGSA); experiment: as above; settings: rating scale 0-100 (0 no damage, 100 complete death), 14 days after application
Procedure, shortened: as §2

[18] = test system: lambsquarters (Chenopodium album, CHEAL); experiment: as above; settings: rating scale 0-100 (0 no damage, 100 complete death), 14 days after application
Procedure, shortened: as §2

[19] = test system: sicklepod (Cassia obtusifolia, CASOB); experiment: as above; settings: rating scale 0-100 (0 no damage, 100 complete death), 14 days after application
Procedure, shortened: as §2

[20] = test system: ivyleaf morningglory (Ipomoea hederacea, IPOHE); experiment: as above; settings: rating scale 0-100 (0 no damage, 100 complete death), 14 days after application
Procedure, shortened: as §2

[21] = test system: green foxtail (Setaria viridis, SETVI); experiment: as above; settings: rating scale 0-100 (0 no damage, 100 complete death), 14 days after application
Procedure, shortened: as §2

[22] = test system: upland rice (Oryza sp., var. Tebonnet, RICE); experiment: Pre-emerge test, crop safety; settings: pre-emerge, 14 days after application, rating scale 0-100
Procedure, shortened: as §1

[23] = test system: field corn (Zea mays L., var. Dekalb 535, CORN); experiment: Pre-emerge test, crop safety; settings: pre-emerge, 14 days after application, rating scale 0-100
Procedure, shortened: as §1

## COc1c(Cl)cc(F)c(-n2c(=O)cc(C(F)(F)F)n(C)c2=O)c1CC(C)(Cl)C(=O)OCC1CCCO1 (stereo not shown) [14-49]
[1]; Rate 63 g ai/ha
  Post-emerge phytotoxicity rating RICE (crop damage): 50
[1]; Rate 250 g ai/ha
  Post-emerge phytotoxicity rating RICE (crop damage): 95
[2]; Rate 63 g ai/ha
  Post-emerge phytotoxicity rating CORN (crop damage): 80
[2]; Rate 250 g ai/ha
  Post-emerge phytotoxicity rating CORN (crop damage): 100
[3]; 63 g ai/ha
  phytotoxicity rating ECHCG: 0
[3]; 250 g ai/ha
  phytotoxicity rating ECHCG: 100
[4]; 63 g ai/ha
  phytotoxicity rating SORHA: 20
[4]; 250 g ai/ha
  phytotoxicity rating SORHA: 90
[5]; 63 g ai/ha
  phytotoxicity rating ABUTH: 100
[5]; 250 g ai/ha
  phytotoxicity rating ABUTH: 100
[6]; 63 g ai/ha
  phytotoxicity rating DIGSA: 50
[6]; 250 g ai/ha
  phytotoxicity rating DIGSA: 100
[7]; 63 g ai/ha
  phytotoxicity rating CHEAL: 100
[7]; 250 g ai/ha
  phytotoxicity rating CHEAL: 100
[8]; 63 g ai/ha
  phytotoxicity rating CASOB: 0
[8]; 250 g ai/ha
  phytotoxicity rating CASOB: 70
[9]; 63 g ai/ha
  phytotoxicity rating IPOHE: 50
[9]; 250 g ai/ha
  phytotoxicity rating IPOHE: 90
[10]; 63 g ai/ha
  phytotoxicity rating SETVI: 50
[10]; 250 g ai/ha
  phytotoxicity rating SETVI: 100
[11]; 63 g ai/ha
  phytotoxicity rating AMARE: 100
[11]; 250 g ai/ha
  phytotoxicity rating AMARE: 100
[12]; Rate 63 g ai/ha
  Post-emerge Herbicidal Activity, phytotoxicity rating ECHCG: 100
[12]; Rate 250 g ai/ha
  Post-emerge Herbicidal Activity, phytotoxicity rating ECHCG: 100
[13]; Rate 63 g ai/ha
  Post-emerge Herbicidal Activity, phytotoxicity rating SORHA: 70
[13]; Rate 250 g ai/ha
  Post-emerge Herbicidal Activity, phytotoxicity rating SORHA: 95
[14]; Rate 63 g ai/ha
  Post-emerge Herbicidal Activity, phytotoxicity rating ABUTH: 100
[14]; Rate 250 g ai/ha
  Post-emerge Herbicidal Activity, phytotoxicity rating ABUTH: 100
[15]; Rate 63 g ai/ha
  Post-emerge Herbicidal Activity, phytotoxicity rating AMARE: 100
[15]; Rate 250 g ai/ha
  Post-emerge Herbicidal Activity, phytotoxicity rating AMARE: 100
[16]; Rate 63 g ai/ha
  Post-emerge Herbicidal Activity, phytotoxicity rating AMBEL: 100
[16]; Rate 250 g ai/ha
  Post-emerge Herbicidal Activity, phytotoxicity rating AMBEL: 100
[17]; Rate 63 g ai/ha
  Post-emerge Herbicidal Activity, phytotoxicity rating DIGSA: 70
[17]; Rate 250 g ai/ha
  Post-emerge Herbicidal Activity, phytotoxicity rating DIGSA: 95
[18]; Rate 63 g ai/ha
  Post-emerge Herbicidal Activity, phytotoxicity rating CHEAL: 100
[18]; Rate 250 g ai/ha
  Post-emerge Herbicidal Activity, phytotoxicity rating CHEAL: 100
[19]; Rate 63 g ai/ha
  Post-emerge Herbicidal Activity, phytotoxicity rating CASOB: 70
[19]; Rate 250 g ai/ha
  Post-emerge Herbicidal Activity, phytotoxicity rating CASOB: 95
[20]; Rate 63 g ai/ha
  Post-emerge Herbicidal Activity, phytotoxicity rating IPOHE: 100
[20]; Rate 250 g ai/ha
  Post-emerge Herbicidal Activity, phytotoxicity rating IPOHE: 100
[21]; Rate 63 g ai/ha
  Post-emerge Herbicidal Activity, phytotoxicity rating SETVI: 50
[21]; Rate 250 g ai/ha
  Post-emerge Herbicidal Activity, phytotoxicity rating SETVI: 100
[22]; 63 g ai/ha
  phytotoxicity rating RICE: 40
[22]; 250 g ai/ha
  phytotoxicity rating RICE: 95
[23]; 63 g ai/ha
  phytotoxicity rating CORN: 10
[23]; 250 g ai/ha
  phytotoxicity rating CORN: 95
